Data taken from US8614208B2, “Fused heterocyclic ring derivative and use thereof” (Takeda Pharmaceutical Company Limited, priority 2009, dated 2013).

Biological target: T1, Smo (Mus musculus, UniProt P56726)
T1 construct: endogenous in cells; host or cells: NIH-3T3 cells stably carrying the Gli reporter plasmid
Assay: Gli reporter luciferase assay in NIH-3T3/Gli reporter cells stimulated with mouse Shh-N end fragment
Format: cell-based
Details: NIH3T3; 1 μM compound; NIH-3T3/Gli reporter cells with mouse Shh-N culture supernatant, 48 hr; luciferase activity, control without compound as 100; read-out: inhibitory rate (%) at 1 μM
Experimental: Gli reporter plasmid was constructed by inserting 8×Gli-binding site and chicken δ-crystalline promoter into the upstream of luc+ of pGL3 (Promega).
prepared in reference to the base sequence described in GenBank accession No.; X02187, and chicken genome DNA (Clontech) as a template. PCR reaction was performed using Pfu Turbo (Stratagene) and following the attached protocol. The obtained 108 bp fragment was digested with restriction enzymes BglII and HindIII, and inserted into BglII-HindIII site of pGL3 to give plasmid pGL3/δ-cry promoter.
As 8×Gli-binding site, a sequence containing eight 9-bp Gli bound consensus sequences (GACCACCCA) described in Yoon et al., J. Biol. Chem., vol. 273, pages 3496-3501 (1998) was prepared from synthetic DNA. That is, two synthetic DNAs,
were heat treated at 95° C. for 2 minutes, and incubated at 37° C. for 1 hr for annealing to give a double stranded DNA of the above-mentioned two synthetic DNAs. The obtained double stranded DNA was digested with restriction enzymes BglII and KpnI, and the obtained DNA fragment was inserted into BglII-KpnI site of pGL3/δ-cry promoter to construct plasmid pGL3/δ-cry promoter, 8×Gli binding site, i.e., Gli reporter plasmid.
HEK293 cells were grown in D-MEM medium (Invitrogen) containing 10% fetal bovine serum in a 10 cm dish and pcDNA3.1/mShh-N was introduced into the cells using FuGENE6 (Roche Applied Science). Thereafter, the HEK293 cells were cultured in a carbon dioxide gas incubator at 37° C. for 24 hours, and the medium was exchanged with D-MEM medium (Invitrogen) containing 2% fetal bovine serum. After culturing for 48 hr, a culture supernatant containing recombinant type mouse Shh-N end fragment was obtained by filtration using a filter ([…]).
Using D-MEM (Invitrogen) containing 10% fetal bovine serum, expression plasmid pcDNA3.1 and Gli reporter plasmid (pGL3/δ-cry promoter, 8×Gli binding site) produced by the method of Experimental Example 1 were introduced into NIH-3T3 cells grown in a 10 cm dish by the use of FuGENE6 (Roche Applied Science).
After culture for 24 hr, the cells were recovered, suspended in D-MEM medium containing 10% fetal bovine serum and supplemented with Geneticin (Life Technologies Oriental, Inc.) to a final concentration of 500 μg/ml, diluted to 10^4 cells/ml, plated on a 96 well plate, and cultured in a carbon dioxide gas incubator at 37° C. to give Geneticin resistant transformed cell line.
The obtained transformed cell line was cultured in a 96 well plate, mouse Shh-N end fragment obtained in Experimental Example 3 was added, and NIH-3T3/Gli reporter cell, which is a cell line capable of induction of luciferase expression, was selected.
NIH-3T3/Gli reporter cells cultured in D-MEM (Invitrogen) containing 10% fetal bovine serum were plated in a 96 well white plate at 1×10^4 cells/well, and cultured overnight in a carbon dioxide gas incubator at 37° C. The medium was removed, a compound (50 μl) and culture supernatant of mouse Shh-N end fragment-expressing HEK293 (D-MEM medium containing 2% fetal bovine serum, 50 μl) were added, and the cells were cultured for 48 hr in a carbon dioxide gas incubator at 37° C. Bright-Glo (Promega, 50 μl) was added, and the mixture was stirred, after which luciferase activity was measured by EnVision (PerkinElmer). The inhibition rate was calculated based on the luciferase activity of the control without addition of the compound as 100.

T1 sequence (P56726 33-793): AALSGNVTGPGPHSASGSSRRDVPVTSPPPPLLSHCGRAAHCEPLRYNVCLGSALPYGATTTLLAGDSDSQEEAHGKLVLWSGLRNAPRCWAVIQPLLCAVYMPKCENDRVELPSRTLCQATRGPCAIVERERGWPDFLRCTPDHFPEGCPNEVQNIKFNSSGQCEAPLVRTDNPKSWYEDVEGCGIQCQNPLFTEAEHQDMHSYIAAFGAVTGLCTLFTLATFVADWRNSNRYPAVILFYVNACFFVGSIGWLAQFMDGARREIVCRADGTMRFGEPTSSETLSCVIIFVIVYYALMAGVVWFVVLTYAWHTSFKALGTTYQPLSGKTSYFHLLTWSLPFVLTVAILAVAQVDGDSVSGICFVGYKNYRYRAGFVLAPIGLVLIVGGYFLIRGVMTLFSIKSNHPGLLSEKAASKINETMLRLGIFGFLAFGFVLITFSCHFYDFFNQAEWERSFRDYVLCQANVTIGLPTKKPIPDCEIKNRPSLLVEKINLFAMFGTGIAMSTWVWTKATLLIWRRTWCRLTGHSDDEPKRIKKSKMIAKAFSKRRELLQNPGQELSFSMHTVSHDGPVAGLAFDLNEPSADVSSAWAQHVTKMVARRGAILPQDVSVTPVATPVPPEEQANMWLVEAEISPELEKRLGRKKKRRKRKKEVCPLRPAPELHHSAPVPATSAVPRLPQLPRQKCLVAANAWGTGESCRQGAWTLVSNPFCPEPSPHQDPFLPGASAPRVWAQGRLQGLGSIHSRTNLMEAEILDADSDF

inhibition at 1 µM [%] | Structure (SMILES)
96 | COc1ccccc1Cn1c(C)nc2c(c(OCC(F)(F)F)c(C(=O)NC3CCN(C(=O)CO)CC3)n2C)c1=O [Example 8, N-[1-(hydroxyacetyl)piperidin-4-yl]-3-(2-methoxybenzyl)-2,7-dimethyl-4-oxo-5-(2,2,2-trifluoroethoxy)-4,7-dihydro-3H-pyrrolo[2,3-d]pyrimidine-6-carboxamide]
98 | Cc1nc2c(c(OCC(F)(F)F)c(C(=O)NC3CCN(C(=O)CO)CC3)n2C)c(=O)n1CCc1ccccc1 [Example 12, N-[1-(hydroxyacetyl)piperidin-4-yl]-2,7-dimethyl-4-oxo-3-(2-phenylethyl)-5-(2,2,2-trifluoroethoxy)-4,7-dihydro-3H-pyrrolo[2,3-d]pyrimidine-6-carboxamide]
98 | Cc1nc2c(c(OCC(F)(F)F)c(C(=O)NC3CCN(C(=O)CO)CC3)n2C)c(=O)n1Cc1ccccc1 [Example 4, 3-benzyl-N-[1-(hydroxyacetyl)piperidin-4-yl]-2,7-dimethyl-4-oxo-5-(2,2,2-trifluoroethoxy)-4,7-dihydro-3H-pyrrolo[2,3-d]pyrimidine-6-carboxamide]
98 | CCc1nc2c(c(OCC(F)(F)F)c(C(=O)NC3CCN(C(=O)CO)CC3)n2C)c(=O)n1Cc1cccc(Cl)c1 [Example 17, 3-(3-chlorobenzyl)-2-ethyl-N-[1-(hydroxyacetyl)piperidin-4-yl]-7-methyl-4-oxo-5-(2,2,2-trifluoroethoxy)-4,7-dihydro-3H-pyrrolo[2,3-d]pyrimidine-6-carboxamide]
98 | Cc1nc2c(c(OCC(F)(F)F)c(C(=O)NC3CCN(C(=O)CO)CC3)n2C)c(=O)n1CC(=O)c1ccccc1 [Example 1, N-[1-(hydroxyacetyl)piperidin-4-yl]-2,7-dimethyl-4-oxo-3-(2-oxo-2-phenylethyl)-5-(2,2,2-trifluoroethoxy)-4,7-dihydro-3H-pyrrolo[2,3-d]pyrimidine-6-carboxamide]
95 | Cc1nc2c(c(OCC(F)(F)F)c(C(=O)NC3CCN(C(=O)CO)CC3)n2C)c(=O)n1Cc1ccccc1Cl [Example 14, 3-(2-chlorobenzyl)-N-[1-(hydroxyacetyl)piperidin-4-yl]-2,7-dimethyl-4-oxo-5-(2,2,2-trifluoroethoxy)-4,7-dihydro-3H-pyrrolo[2,3-d]pyrimidine-6-carboxamide]
98 | Cc1nc2c(c(OCC(F)(F)F)c(C(=O)NC3CCN(C(=O)CO)CC3)n2C)c(=O)n1Cc1cccc(Cl)c1 [Example 10, 3-(3-chlorobenzyl)-N-[1-(hydroxyacetyl)piperidin-4-yl]-2,7-dimethyl-4-oxo-5-(2,2,2-trifluoroethoxy)-4,7-dihydro-3H-pyrrolo[2,3-d]pyrimidine-6-carboxamide]
97 | CCc1nc2c(c(OCC(F)(F)F)c(C(=O)NC3CCN(C(=O)CO)CC3)n2C)c(=O)n1CC(=O)c1ccccc1 [Example 13, 2-ethyl-N-[1-(hydroxyacetyl)piperidin-4-yl]-7-methyl-4-oxo-3-(2-oxo-2-phenylethyl)-5-(2,2,2-trifluoroethoxy)-4,7-dihydro-3H-pyrrolo[2,3-d]pyrimidine-6-carboxamide]
95 | Cc1nc2c(c(OCC(F)(F)F)c(C(=O)NC3CCN(C(=O)CO)CC3)n2C)c(=O)n1Cc1ccc(Cl)cc1 [Example 9, 3-(4-chlorobenzyl)-N-[1-(hydroxyacetyl)piperidin-4-yl]-2,7-dimethyl-4-oxo-5-(2,2,2-trifluoroethoxy)-4,7-dihydro-3H-pyrrolo[2,3-d]pyrimidine-6-carboxamide]
97 | COc1cccc(Cn2c(C)nc3c(c(OCC(F)(F)F)c(C(=O)NC4CCN(C(=O)CO)CC4)n3C)c2=O)c1 [Example 6, N-[1-(hydroxyacetyl)piperidin-4-yl]-3-(3-methoxybenzyl)-2,7-dimethyl-4-oxo-5-(2,2,2-trifluoroethoxy)-4,7-dihydro-3H-pyrrolo[2,3-d]pyrimidine-6-carboxamide]
100 | Cc1nc2c(c(OCC(F)(F)F)c(C(=O)NC3CCN(C(=O)CO)CC3)n2C)c(=O)n1Cc1ccc(F)cc1 [Example 5, 3-(4-fluorobenzyl)-N-[1-(hydroxyacetyl)piperidin-4-yl]-2,7-dimethyl-4-oxo-5-(2,2,2-trifluoroethoxy)-4,7-dihydro-3H-pyrrolo[2,3-d]pyrimidine-6-carboxamide]

Further lines, the compound ahead of its results:

Structure (SMILES) | inhibition at 1 µM [%]
CCc1nc2c(c(OC(C)C)c(C(=O)NC3CCN(C(=O)CO)CC3)n2C)c(=O)n1CC(=O)c1ccc(F)cc1 [Example 34, 2-ethyl-3-[2-(4-fluorophenyl)-2-oxoethyl]-N-[1-(hydroxyacetyl)piperidin-4-yl]-7-methyl-5-(1-methylethoxy)-4-oxo-4,7-dihydro-3H-pyrrolo[2,3-d]pyrimidine-6-carboxamide] | 97
CCCCCn1c(C)nc2c(c(OCC(F)(F)F)c(C(=O)NC3CCN(C(=O)CO)CC3)n2C)c1=O [Example 11, N-[1-(hydroxyacetyl)piperidin-4-yl]-2,7-dimethyl-4-oxo-3-pentyl-5-(2,2,2-trifluoroethoxy)-4,7-dihydro-3H-pyrrolo[2,3-d]pyrimidine-6-carboxamide] | 96
CCc1nc2c(c(OC(C)C)c(C(=O)NC3CCN(C(=O)CO)CC3)n2C)c(=O)n1CC(=O)c1ccccc1 [Example 22, 2-ethyl-N-[1-(hydroxyacetyl)piperidin-4-yl]-7-methyl-5-(1-methylethoxy)-4-oxo-3-(2-oxo-2-phenylethyl)-4,7-dihydro-3H-pyrrolo[2,3-d]pyrimidine-6-carboxamide] | 98
CCc1nc2c(c(OCC(F)(F)F)c(C(=O)NC3CCOCC3)n2C)c(=O)n1CC(=O)c1ccccc1 [Example 16, 2-ethyl-7-methyl-4-oxo-3-(2-oxo-2-phenylethyl)-N-(tetrahydro-2H-pyran-4-yl)-5-(2,2,2-trifluoroethoxy)-4,7-dihydro-3H-pyrrolo[2,3-d]pyrimidine-6-carboxamide] | 97
Cc1nc2c(c(OC(C)C)c(C(=O)NC3CCN(C(=O)CO)CC3)n2C)c(=O)n1-c1ccccc1 [Example 29, N-[1-(hydroxyacetyl)piperidin-4-yl]-2,7-dimethyl-5-(1-methylethoxy)-4-oxo-3-phenyl-4,7-dihydro-3H-pyrrolo[2,3-d]pyrimidine-6-carboxamide] | 99
CCc1nc2c(c(OCC(F)(F)F)c(C(=O)NC3CCN(C(=O)CO)CC3)n2C)c(=O)n1CC(=O)c1ccc(F)cc1 [Example 33, 2-ethyl-3-[2-(4-fluorophenyl)-2-oxoethyl]-N-[1-(hydroxyacetyl)piperidin-4-yl]-7-methyl-4-oxo-5-(2,2,2-trifluoroethoxy)-4,7-dihydro-3H-pyrrolo[2,3-d]pyrimidine-6-carboxamide] | 96
CCOc1c(C(=O)NC2CCN(C(=O)CO)CC2)sc2nc(C)n(CC(=O)c3ccccc3)c(=O)c12 [Example 18, 5-ethoxy-N-[1-(hydroxyacetyl)piperidin-4-yl]-2-methyl-4-oxo-3-(2-oxo-2-phenylethyl)-3,4-dihydrothieno[2,3-d]pyrimidine-6-carboxamide] | 97
Cc1nc2c(c(OC(C)C)c(C(=O)NC3CCN(C(=O)CO)CC3)n2C)c(=O)n1CC(=O)c1ccccc1 [Example 3, N-[1-(hydroxyacetyl)piperidin-4-yl]-2,7-dimethyl-5-(1-methylethoxy)-4-oxo-3-(2-oxo-2-phenylethyl)-4,7-dihydro-3H-pyrrolo[2,3-d]pyrimidine-6-carboxamide] | 93
Cc1nc2c(c(OCC(F)(F)F)c(C(=O)NC3CCN(C(=O)CO)CC3)n2C)c(=O)n1CCc1ccc(F)cc1 [Example 15, 3-[2-(4-fluorophenyl)ethyl]-N-[1-(hydroxyacetyl)piperidin-4-yl]-2,7-dimethyl-4-oxo-5-(2,2,2-trifluoroethoxy)-4,7-dihydro-3H-pyrrolo[2,3-d]pyrimidine-6-carboxamide] | 97
